Results reported in the supplement of paper PMC5412046.

What was measured:
[1] = tested on: SB.mhdgc-1; assay: viability at highest tested concentration (MAXR) relative to DMSO; higher = less cytotoxic; conditions: SB.mhdgc-1 (hereditary c.1380delA CDH1 gastric cancer)
Summary of the method: (§1)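 In 1536-well plates, each well held 500 gastric cancer cells of hereditary or sporadic patient origin in 5 μL medium. Compound in DMSO (23 nL, pintool) was added at 11 concentrations spaced threefold apart, and the top concentration was noted per compound. Luminescence was read on a ViewLux after a 48 h incubation and a 30 min room-temperature treatment with CellTiter-Glo. Figures give viability normalised to DMSO, either at the highest concentration or as trapezoidal area under the curve.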

[2] = tested on: SB.msgc-1; assay: as above; conditions: SB.msgc-1 (sporadic gastric cancer)
Summary of the method: as §1

[3] = tested on: SB.mhdgc-1; assay: area under the dose-response curve of % viability (trapezoidal, 11 doses) (% viability x log10 concentration); higher = less cytotoxic; conditions: SB.mhdgc-1 (hereditary c.1380delA CDH1 gastric cancer)
Summary of the method: as §1

[4] = tested on: SB.msgc-1; assay: as above; conditions: SB.msgc-1 (sporadic gastric cancer)
Summary of the method: as §1

Row | SMILES | viability [1] [%] | viability [2] [%] | area under the dose-response curve [3] | area under the dose-response curve [4]
1 | CC1=C(/C=C/C(C)=C/C=C/C(C)=C/C(=O)Nc2ccc(O)cc2)C(C)(C)CCC1 [Fenretinide] (top concentration 92.1659 µM) | 1.84 | 1.05 | 443 | 412
2 | OC1=CC2=C(C(=C1)O)C(=O)\C=C(/O2)C3=CC=CC=C3 [5,7-Dihydroxyflavone] (top concentration 46.0829 µM) | 80.3 | 96.1 | 566 | 472
3 | FC1=C(C=C(C\C2=N\NC(=O)C3=C2C=CC=C3)C=C1)C(=O)N4CCN(CC4)C(=O)C5CC5 [Olaparib] (top concentration 46.0829 µM) | 47.4 | 54.9 | 412 | 442
4 | C[C@@]1(C(=O)Nc2ccc(F)nc2)CCCN1c1nc(Nc2cc(C3CC3)[nH]n2)c2cccn2n1 (top concentration 46.0829 µM) | 27.8 | 53 | 370 | 476
5 | O=C(N[C@@H](c1ccccc1)[C@@H]1CCCCN1)c1cccc(C(F)(F)F)c1Cl (top concentration 46.0829 µM) | 13 | 76.3 | 476 | 482
6 | Clc1ccc(C(Cn2ccnc2)OCc2ccsc2Cl)c(Cl)c1 (stereo not drawn) [Tioconazole] (top concentration 46.0829 µM) | 87.4 | 57.8 | 544 | 538
7 | C[S+](=O)([O-])c1ccc([C@@H](O)[C@@H](CO)NC(=O)C(Cl)Cl)cc1 [Thiamphenicol] (top concentration 46.0829 µM) | 43.5 | 83.5 | 462 | 508
8 | CC(=O)N(C)c1cccc(-c2ccnc3c(C(=O)c4cccs4)cnn23)c1 [Indiplon] (top concentration 46.0829 µM) | 101 | 64.2 | 571 | 489
9 | O=C(NOC[C@H](O)CO)c1ccc(F)c(F)c1Nc1ccc(I)cc1F (top concentration 46.0829 µM) | 47.5 | 64.2 | 364 | 444
10 | c1ccc2[nH]c(-c3cscn3)nc2c1 [Thiabendazole] (top concentration 46.0829 µM) | 66.9 | 104 | 469 | 487
11 | COc1ccccc1N1CCN(CCN(C(=O)C2CCCCC2)c2ccccn2)CC1 (top concentration 46.0829 µM) | 96.2 | 89.5 | 505 | 534
12 | C[C@@H](NC(=O)c1ncnc(N)c1Cl)c1ncc(C(=O)Nc2cc(C(F)(F)F)c(Cl)cn2)s1 [MLN-2480] (top concentration 46.0829 µM) | 71.9 | 48.3 | 543 | 554
13 | COC(=O)CCC1=C(C)C2=CC3=NC(=CC4=C(C)C(=C([NH]4)C=C\5N=C(C=C1[NH]2)\C(=C5C)CCC(O)=O)C=C)\C6=C\C=C(/[C@@H](C(=O)OC)[C@@]36C)C(=O)OC [Verteporfin] (top concentration 46.0829 µM) | 37.4 | 4.28 | 418 | 315
14 | C=CC(=O)Nc1cccc(Nc2nc(NC3CCC(N(C)C)CC3)nc3c2ncn3C(C)C)c1 (stereo not drawn) (top concentration 46.0829 µM) | 2.91 | 49.4 | 163 | 344
15 | O=C1c2c(O)cc(O)cc2OC(c2ccc(O)c(O)c2)C1O (stereo not drawn) [Taxifolin] (top concentration 46.0829 µM) | 117 | 87.4 | 488 | 499
16 | Oc1c(Cl)cc(Cl)c2cccnc12 [Chloroxine] (top concentration 46.0829 µM) | 10.8 | 22.7 | 544 | 498
17 | Cc1oncc1C(=O)Nc1ccc(C(F)(F)F)cc1 [Leflunomide] (top concentration 46.0829 µM) | 87.4 | 79.3 | 495 | 485
18 | COc1ccc(CCC(=O)Nc2nc3ccc(Cl)cc3s2)cc1OC (top concentration 46.0829 µM) | 78 | 71.8 | 564 | 514
19 | Cc1[nH]c2ccccc2c1CCNCc1ccc(/C=C/C(=O)NO)cc1 [Panobinostat] (top concentration 46.0829 µM) | 22.6 | 7.03 | 339 | 256
20 | O=C1Nc2ccc(I)cc2/C1=C/c1cc(Br)c(O)c(Br)c1 [GW-5074] (top concentration 46.0829 µM) | 56.2 | 53.8 | 518 | 453
21 | Clc1cccc(-c2nnnn2Cc2cccnc2)c1Cl (top concentration 46.0829 µM) | 88.6 | 111 | 402 | 520
22 | CC(=O)SCC(Cc1ccccc1)C(=O)NCC(=O)OCc1ccccc1 (stereo not drawn) [Racecadotril] (top concentration 46.0829 µM) | 48.9 | 46.5 | 333 | 358
23 | Cc1ccccc1C(C(=O)NC1CCCCC1)N(C(=O)Cn1ccnc1C)c1cccc(F)c1 (stereo not drawn) [AGI-5198] (top concentration 46.0829 µM) | 114 | 83.5 | 597 | 508
24 | C/C=C/C(=O)N(CC)c1ccccc1C [Crotamiton] (top concentration 46.0829 µM) | 43.3 | 79.7 | 569 | 502

Row | SMILES | viability [1] [%] | viability [2] [%] | area under the dose-response curve [3] | area under the dose-response curve [4]
25 | CCOCC(O)COc1ccc(NC(=O)CC[S+](C)C)cc1 (stereo not drawn) [Suplatast tosilate] (top concentration 46.0829 µM) | 83.4 | 97.7 | 433 | 478
26 | COc1ccc(-c2ccc3c(N4CCOC[C@@H]4C)nc(N4CCOC[C@@H]4C)nc3n2)cc1CO [AZD-8055] (top concentration 46.0829 µM) | 18.3 | 60.1 | 314 | 435
27 | Cc1cc(Nc2ncc3c(n2)N(C)C(=O)N(c2cc(NC(=O)c4cccc(C(F)(F)F)c4)ccc2C)C3)n(C)n1 [Pluripotin] (top concentration 46.0829 µM) | 40.4 | 45.8 | 429 | 438
28 | CN(C)C1=C(Br)C=C(C=C1)C\2NC3=C(\C4=C2C(=O)CC(C)(C)C4)C5=CC=CC=C5C=C3 (stereo not drawn) [GLS968] (top concentration 46.0829 µM) | 51.1 | 73.8 | 485 | 494
29 | O=C(Nc1ccc(OC(F)(F)F)cc1)c1sccc1NCc1ccnc2ccccc12 [OSI-930] (top concentration 46.0829 µM) | 78.9 | 48.4 | 507 | 506
30 | COc1ccc(-n2c(C)c([N+](=O)[O-])c3ccc(O)cc32)cc1 [ID-8] (top concentration 46.0829 µM) | 39.1 | 108 | 475 | 548
31 | Cc1cccc(Nc2nc(N[C@@H]3CCCC[C@@H]3N)ncc2C(N)=O)c1 (top concentration 46.0829 µM) | 1.91 | 24.7 | 425 | 483
32 | C/C=C/C/C=C/CCC(=O)[C@H]1O[C@H]1C(N)=O [Cerulenin] (top concentration 46.0829 µM) | 67.9 | 75 | 475 | 562
33 | O=C(NCCCNc1nc(Nc2cccc(NC(=O)N3CCCC3)c2)ncc1I)c1cccs1 [BX-795] (top concentration 46.0829 µM) | 21.6 | 22.6 | 452 | 449
34 | CC(C)NCC(O)COc1ccc(COCCOC(C)C)cc1 (stereo not drawn) [Bisoprolol] (top concentration 46.0829 µM) | 107 | 119 | 508 | 555
35 | N#C/C(=C1/Nc2ccccc2S1)c1ccnc(OCc2ccc(CN3CCOCC3)cc2)n1 (top concentration 46.0829 µM) | 5.64 | 12.5 | 267 | 312
36 | Cn1cc(-c2ccc3ncc(Cc4ccc5ncccc5c4)n3n2)cn1 [NVP-BVU-972] (top concentration 46.0829 µM) | 49.7 | 98.9 | 374 | 506
37 | Cc1ccc(-c2cc(C(F)(F)F)nn2-c2ccc([S+](N)(=O)[O-])cc2)cc1 [Celecoxib] (top concentration 46.0829 µM) | 102 | 70.4 | 585 | 505
38 | CCCCCN(C)CCC(O)(P(=O)([O-])O)P(=O)(O)O [Ibandronate sodium hydrate] (top concentration 46.0829 µM) | 107 | 108 | 468 | 547
39 | C[C@H]1C[C@H]2[C@@H]3CC[C@](O)(C(=O)CO)[C@@]3(C)C[C@H](O)[C@@H]2[C@@]\4(C)/C=C\C(=O)\C=C14 [Methylprednisolone] (top concentration 46.0829 µM) | 105 | 95 | 462 | 495
40 | CN(C)CC[C@H](CSc1ccccc1)Nc1ccc([S+](=O)([O-])NC(=O)c2ccc(N3CCN(Cc4ccccc4-c4ccc(Cl)cc4)CC3)cc2)cc1[N+](=O)[O-] [ABT-737] (top concentration 46.0829 µM) | 3.18 | 53.2 | 415 | 493
41 | Cc1cc2c(F)c(Oc3ncnn4cc(OC[C@@H](C)O)c(C)c34)ccc2[nH]1 [Brivanib] (top concentration 46.0829 µM) | 20.9 | 58.9 | 504 | 499
42 | NC/1=N/C(=O)N(/C=N1)[C@@H]2O[C@H](CO)[C@@H](O)[C@H]2O [5-Azacitidine] (top concentration 46.0829 µM) | 31.6 | 19.9 | 501 | 392
43 | CC(C)C[C@@H](C(=O)N[C@H](C(=O)OC1CCCC1)c1ccccc1)[C@H](O)C(=O)NO [Tosedostat] (top concentration 46.0829 µM) | 45.4 | 57.9 | 495 | 480
44 | COC(=O)C1C2CC3c4[nH]c5cc(OC)ccc5c4CCN3CC2CC(OC(=O)c2cc(OC)c(OC)c(OC)c2)C1OC (stereo not drawn) [Reserpine] (top concentration 46.0829 µM) | 5.27 | 45.2 | 418 | 525
45 | CCCNCC(O)COc1ccccc1C(=O)CCc1ccccc1 (stereo not drawn) [Propafenone] (top concentration 46.0829 µM) | 41.2 | 103 | 542 | 553
46 | O=NN(CCCl)C(=O)NC1CCCCC1 [Lomustine] (top concentration 46.0829 µM) | 125 | 70.4 | 551 | 513
47 | O=C(c1ccc(/C=C/c2n[nH]c3ccccc23)cc1)N1CCNCC1 [KW-2449] (top concentration 46.0829 µM) | 23 | 77.9 | 497 | 517
